These results are taken from patent US20260226049A1, “NITROGEN-CONTAINING HETEROCYCLIC COMPOUND, PREPARATION METHOD THEREFOR, AND USE THEREOF” (BIVISION PHARMACEUTICALS, INC, priority 2023, published 2026).

Read-outs that look alike come from different tables or passages of the source.

The subject of one data set is HT1080 8 #cells. The experiment in a line: Cell competitive binding assay against ^177Lu-radiolabeled FAPi-46. How it is done: (1) HT1080 8 #cells in the logarithmic growth phase were prepared into a cell suspension, and the cell density was adjusted to 1×10^4/mL. 1 mL of the suspension was seeded into a 24-well cell culture plate. The plate was incubated overnight in a 37° C. incubator.
(2) The cell culture medium was aspirated, and the cells were washed once with PBS, followed by the addition of 975 μL of additive-free medium.
(3) To each well, 25 µL of ^177Lu-radiolabeled FAPi-46 (Nanchang Tanzhen Biotechnology Co., Ltd., CAS: 2374782-04-2) at a fixed concentration (final concentration in culture medium: 1.35 μCi/mL) and varying concentrations (final concentrations in culture medium: 1000 ng/mL, 100 ng/ml, 10 ng/ml, 1 ng/mL, 0.1 ng/ml, 0.01 ng/mL, 0.001 ng/mL, 0 ng/ml) of unlabeled test compounds JHH8, JHDB8, and JHH9 were added.
(4) The mixture was incubated on ice for 2 hours.
(5) The cells were washed three times with ice-cold PBS.
(6) The cells were lysed with 0.5 mL of 1 M sodium hydroxide, washed twice with 0.5 mL of PBS, and the sodium hydroxide solution (0.5 mL) and PBS solutions (0.5 mL×2) were collected for uptake counting.
The control compound was OncoFAP-DOTAGA (structural formula: […]
The cell competitive binding of compounds JHH5, JHH4, JHH10, JHH8, H4b, H5b, and H8b was tested in the same batch using the above method, and the experimental results are shown in Table 3 and FIG. 3.

Data set [1] concerns HT1080 cell line with high FAP expression. The data set is described as follows: Therapeutic experiment of ^177Lu-labeled compounds in tumor-bearing mice. Type of data set: in vivo, Balb/c Nude mice. To be noted: ^177Lu-labeled compound. How it is done:
Balb/c Nude tumor-bearing mice (supplier: Shanghai Alamo Pharmaceutical Technology Co., Ltd., HT1080 cell line with high FAP expression) aged approximately 6-8 weeks were randomly assigned to 13 experimental groups based on tumor volume, with 5 mice per group. Animal body weight and tumor size were measured, and administration was initiated on the grouping day starting with Group 1 (control group: normal saline). General health and appearance were observed daily after the start of the experiment. Animal body weight and tumor size were measured before each sample collection time point. Any abnormal observations detected during the entire study period were required to be recorded in the raw data.
The synthesized compounds were labeled with ^177Lu and subsequently utilized in the therapeutic assay on mouse tumor models. […] Furthermore, no significant changes in mouse body weight (FIG. 8) were observed throughout the experimental period.
• TGI^TV: Relative tumor inhibition rate (TGI^TV): TGI^TV (%)=[1−(Ti−T0)/(Vi−V0)]×100%; • (Ti: average tumor volume of the treatment group on day i of administration, TO: average tumor volume of the treatment group on day 0 of administration; Vi: average tumor volume of the solvent control group on day i of administration, V0: average tumor volume of the solvent control group on day 0 of administration) • T/C: T/C % is one of the most commonly used indicators for tumor response to treatment: T/C %=T/C*100%; • (T represents the average tumor volume of the treatment group at a specific time point; C represents the average tumor volume of the control group at a specific time point.)
The differences between the treatment groups (tumor volumes of the second, third, fourth, and fifth groups) and the control group (tumor volume of the first group) and between the tumor volumes of the first, third, fourth, and fifth groups and the tumor volume of the second group were analyzed using the two-way ANOVA Fisher's LSD test method. P-values less than 0.05 were considered statistically significant. Both statistical significance and biological significance were taken into account during the result analysis.

The next data set deals with T1, FAP protein (Homo sapiens, UniProt Q12884).
T1 construct: purchased Sinobiological
T1 sequence (Q12884 1-760): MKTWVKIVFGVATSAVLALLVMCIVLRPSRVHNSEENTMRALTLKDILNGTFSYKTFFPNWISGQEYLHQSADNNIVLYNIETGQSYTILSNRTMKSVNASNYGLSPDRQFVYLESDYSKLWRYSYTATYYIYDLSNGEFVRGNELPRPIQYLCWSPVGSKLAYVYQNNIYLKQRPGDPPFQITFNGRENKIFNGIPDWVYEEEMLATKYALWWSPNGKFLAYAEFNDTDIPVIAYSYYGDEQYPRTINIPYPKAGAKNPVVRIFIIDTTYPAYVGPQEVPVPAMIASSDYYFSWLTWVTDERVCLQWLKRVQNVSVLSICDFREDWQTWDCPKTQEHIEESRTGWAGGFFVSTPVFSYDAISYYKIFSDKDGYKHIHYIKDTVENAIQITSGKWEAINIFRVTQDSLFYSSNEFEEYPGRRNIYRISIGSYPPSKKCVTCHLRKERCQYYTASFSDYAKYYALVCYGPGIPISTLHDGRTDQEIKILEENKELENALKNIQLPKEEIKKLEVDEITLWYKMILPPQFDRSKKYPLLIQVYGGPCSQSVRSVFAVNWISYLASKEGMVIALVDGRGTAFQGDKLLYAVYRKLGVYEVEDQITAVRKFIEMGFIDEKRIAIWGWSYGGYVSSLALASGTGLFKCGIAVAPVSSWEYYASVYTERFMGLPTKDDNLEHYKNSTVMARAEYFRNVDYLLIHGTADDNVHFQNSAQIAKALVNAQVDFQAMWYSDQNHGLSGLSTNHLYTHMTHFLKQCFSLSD
The data set is described as follows: Biacore test of ligand binding to FAP protein. Particulars: FAP protein on SA chip, 15° C., 1:1 binding model. How it is done: The Biacore 8K (Cytiva) instrument was used to detect ligand binding of the FAP protein (Sinobiological). The FAP protein was captured on the SA chip. Before ligand immobilization (flow paths 1 and 2, flow rate of 10 μL/min), the FAP protein (10 μg/mL, flow rate of 5 μL/min, injection time of 600 s) was immobilized on flow path 2 using running buffer, and the sensor surface was conditioned with three consecutive injections of 1 M NaCl in 50 mM NaOH. After each ligand injection, additional washing was carried out with isopropanol in 1 M NaCl and 50 mM NaOH (flow paths 1 and 2, flow rate of 10 μL/min, injection time of 60 s).
The test compounds were dissolved in 100% dimethyl sulfoxide and diluted to 10 mM, then further diluted in the assay buffer (PBS, pH 7.4, 1 mM TCEP ([…]), 0.05% P20, 2% dimethyl sulfoxide) to appropriate maximum concentrations. The analyte was run under the following conditions: analysis temperature=15° C., analysis step=all set to LMW kinetics; cycle type=single cycle (90 s contact time, 1800 s dissociation time, 30 μL/min flow rate, flow channels 1, 2); flow channel detection=2-1). Data evaluation was performed using Biacore Insight Evaluation Software, and the data were fitted to a 1:1 binding model.
The Biacore results are shown in Table 1: pKD=−Log KD, where KD is the binding affinity of the compound to the FAP protein as measured by Biacore. The binding affinity is expressed by KD (M)=Kd(1/s)/Ka(1/Ms). Where A: pKD>8, B: 7<pKD<8, C: 6<pKD<7, D: pKD<6.

For the next data set, the system named is HT1080 2 #FAP cells. The data set is described as follows: Tissue distribution in FAP-positive tumor-bearing mice. The class given is in vivo, mice (Balb/c Nude). To be noted: 24 hours after tail vein injection, approximately 3.7 MBq/mouse. An excerpt: Tissue distribution in FAP-positive tumor-bearing mice: 2×10^6 HT1080 2 #FAP cells (in 50% Matrigel, Corning) were subcutaneously inoculated into the right shoulder of mice (Balb/c Nude, Vital River) aged approximately 6-9 weeks. When the tumors grew to approximately 150-350 mm^3 in size, the following “7. General ^177Lu Labeling Experimental Method” was used to label JHH3, JHH8, JHH9, JHDB7, and JHDB8 compounds. Subsequently, ^177Lu-JHH3, ^177Lu-JHH8, ^177Lu-JHH9, ^177Lu-JHDB7, ^177Lu-JHDB8, and ^177Lu-OncoFAP DOTAGA radiolabeled compounds were injected into the mice via the tail vein (approximately 3.7 MBq/mouse). 24 hours after administration, the animals were euthanized by CO2 inhalation, and blood and organs (liver, kidney, muscle, tumor) were collected after euthanasia.
After organ collection, the samples were rinsed twice with deionized water and dried, then placed in pre-weighed tubes and weighed again to calculate the sample weight. The samples were measured on the day of collection. All blood samples and tissue samples were measured for radioactive counts using a gamma counter.

Where [2] appears, read: EC50 (ng/mL) converted with molecular weight, read-out: EC50.
The mark [3] stands for this setting: competition with ^177Lu-FAPi-46, on ice 2 hours.

Regarding `N#C[C@@H]1CC(F)(F)CN1C(=O)CNC(=O)c1cccc2c1CNCC2` [Compound H4b], the EC50 was 34.2 nM in the data set with HT1080 8 #cells (setting [2]) and 11.89 ng/mL with HT1080 8 #cells (setting [3]).

`N#C[C@@H]1CC(F)(F)CN1C(=O)CNC(=O)c1cccc2c1CCNC2` [Compound H5b]: the values for the EC50 with HT1080 8 #cells (setting [2]) and in the data set with HT1080 8 #cells (setting [3]) were 452 nM and 157.5 ng/mL, respectively.

Consider `N#C[C@@H]1CC(F)(F)CN1C(=O)CNC(=O)c1ccc2c(c1)CCCN2` [Compound H8b], for which the figures for the EC50 in the data set with HT1080 8 #cells (setting [2]) and in the data set on HT1080 8 #cells (setting [3]) were 9.24 nM and 3.219 ng/mL, respectively.

Regarding `N#C[C@@H]1CC(F)(F)CN1C(=O)CNC(=O)c1cnc2c(c1)CCN(C(=O)CCC(=O)NCCNC(=O)CCC(C(=O)O)N1CCN(CC(=O)O)CCN(CC(=O)O)CCN(CC(=O)O)CC1)C2` (stereo partly drawn) [JHH1, 2,2′,2″-(10-(1-carboxy-4-((2-(4-(3-((2-((S)-2-cyano-4,4-difluoropyrrolidin-1-yl)-2-oxoethyl)carbamoyl)-5,8-dihydro-1,7-naphthyridin-7 (6H)-yl)-4-oxobutanamido)ethyl)amino)-4-oxobutyl)-1,4,7,10-tetraazacyclododecane-1,4,7-triyl)triacetic acid], the “therapeutic effects in mouse tumor model” value in data set [1] was “dose-dependent therapeutic effects”. On FAP protein, this compound showed an equilibrium dissociation constant (Kd) of 10 to 100 nM.

Regarding `N#C[C@@H]1CC(F)(F)CN1C(=O)CNC(=O)c1cccc2c1CN(C(=O)CCC(=O)NCCNC(=O)CCC(C(=O)O)N1CCN(CC(=O)O)CCN(CC(=O)O)CCN(CC(=O)O)CC1)CC2` (stereo partly shown) [JHH4], the EC50 in the data set on HT1080 8 #cells (setting [2]) is 1.3 nM; in the data set on HT1080 8 #cells (setting [3]), 1.231 ng/mL.

As for `N#C[C@@H]1CC(F)(F)CC1C(=O)CNC(=O)c1ccc2c(c1)CCCN2C(=O)CCC(=O)NCCNC(=O)CCC(C(=O)O)N1CCN(CC(=O)O)CCN(CC(=O)O)CCN(CC(=O)O)CC1` (stereo partly shown) [JHH8], the Kd on FAP protein was less than 10 nM. The results for the EC50 with HT1080 8 #cells (setting [2]) and in the data set with HT1080 8 #cells (setting [3]) were 14.5 nM and 13.77 ng/mL, respectively.

In the case of `N#C[C@@H]1CC(F)(F)CN1C(=O)CNC(=O)c1cccc(C2CCN(C(=O)CCC(=O)NCCNC(=O)CCC(C(=O)O)N3CCN(CC(=O)O)CCN(CC(=O)O)CCN(CC(=O)O)CC3)CC2)c1` (stereo partly shown) [JHH9], in data set [1], the “therapeutic effects in mouse tumor model” value is “dose-dependent therapeutic effects”. Moreover, the Kd on FAP protein is less than 10 nM.

`N#C[C@@H]1CC(F)(F)CN1C(=O)CNC(=O)c1cccc2c1CCCN2C(=O)CCC(=O)NCCNC(=O)CCC(C(=O)O)N1CCN(CC(=O)O)CCN(CC(=O)O)CCN(CC(=O)O)CC1` (stereo partly shown) [JHH10]: at FAP protein, the Kd was less than 10 nM. The EC50 in the data set with HT1080 8 #cells (setting [2]) turned out to be 3.56 nM; in the data set with HT1080 8 #cells (setting [3]), 3.38 ng/mL.

In the case of `N#C[C@@H]1CC(F)(F)CN1C(=O)CNC(=O)c1ccnc2c(NC(=O)CCC(=O)NCCNC(=O)CCC(C(=O)O)N3CCN(CC(=O)O)CCN(CC(=O)O)CCN(CC(=O)O)CC3)cccc12` (stereo partly shown) [OncoFAP-DOTAGA, reference compound], the figures for the EC50 in the data set with HT1080 8 #cells (setting [2]) and in the data set on HT1080 8 #cells (setting [3]) were 2.81 nM and 2.699 ng/mL, respectively.

`N#C[C@@H]1CC(F)(F)CN1C(=O)CNC(=O)c1cc2c(s1)CCN(C(=O)CCC(=O)NCCNC(=O)CCC(C(=O)O)N1CCN(CC(=O)O)CCN(CC(=O)O)CCN(CC(=O)O)CC1)C2` (stereo partly shown) [^177Lu-JHH3, metal not drawn]: in the data set on HT1080 2 #FAP cells, the “uptake in other organs compared to the reference compound” value is listed as “lower uptake in other organs” and the “uptake in tumor tissues compared to the reference compound” value is reported as “higher uptake in tumor tissues”.

In general, EC50 refers to the concentration giving half of the maximal effect. The Kd is the free concentration of one partner at which half of the binding sites on the other are occupied at equilibrium, for simple one-to-one binding. A high value points to a looser complex.
